Columns and labels:
Type in all cases: in vivo, guinea pig
[1] = tested on: platelet activating factor (PAF)-induced models; experiment: Ocular pruritus inhibition activity to platelet activating factor-induced models; conditions: for Eye scratching inhibition rate: 8 eyes; for Number of eye scratchings in comparison with the controls (in words): instilled suspensions, extent depends approximately on concentration
Experimental: The ocular pruritus inhibition activity to platelet activating factor (PAF)-induced models was examined using anandamide (test compound A), indometacin morpholinylamide (test compound B) and N-(benzo[d][1,3]dioxol-5-ylmethyl)-7-methoxy-2-oxo-8-penty loxy-1,2-dihydroquinoline-3-carboxamide (test compound C).
Test compound A (50 mg/ml in EtOH) was suspended in a physiological saline at a concentration of 0.01% (w/v). Test compound B was suspended in a 1.0% Tween 80/physiological saline at a concentration of 0.001% or 0.01% (w/v). Test compound C was suspended in a 5.0% Tween 80/physiolosical saline at a concentration of 0.0001%, 0.001% or 0.01% (w/v). In this manner, the test compound suspensions were prepared.
With respect to test compounds A and B, each of the test compound suspensions was instilled into both eyes of a 5-week-old male Hartley guinea pig in 10 μL/one eye. Ten minutes later, each of the test compound suspensions was instilled thereinto at the same concentration (twice in total). With respect to test compound C, the test compound suspension was instilled into both eyes of the 5-week-old male Hartley guinea pig in 10 μL/one eye.
Subsequently, with respect to test compounds A and B, a physiological saline containing 0.1% (w/v) of the platelet activating factor was instilled in 10 μL/one eye into both eyes of the guinea pig after 5 minutes from the second instilling of the respective test compound suspensions. With respect to test compound C, the same physiological saline was instilled in 10 μL/one eye into both eyes of the guinea pig after 15 minutes from the instilling of the test compound suspension. In this manner, the eye scratching action was induced. As controls of test compounds A, B and C, a 2.0% ethanol/physiological saline, a physiological saline and a 5.0% Tween 80/physiological saline were used respectively.
The behavior of the guinea pig after instilling the platelet activating factor was videotaped, and the ocular pruritus was evaluated for each eye by counting the number of actions of scratching the eye with the hind foot. The average value of the eye scratching inhibition rate for 30 minutes after instilling the platelet activating factor is shown in Table 3. In each example, 8 eyes are used.

histamine-induced models = experiment: Ocular pruritus inhibition activity to histamine-induced models; conditions: for Number of eye scratchings: 10 μL/one eye, average, 12 eyes, control 22.8; for Number of eye scratchings / Eye scratching inhibition rate: 30 minutes after 1.0% histamine; for Eye scratching inhibition rate: vs physiological saline control
Experimental: Palmidrol was suspended in a physiological saline at a concentration of 0.1% or 0.5%(w/v), and the resulting suspension was instilled into both eyes of a 5-week-old male Hartley guinea pig in 10 μL/one eye. After 10 minutes, the palmidrol suspension at the same concentration was also instilled thereinto (twice in total). A physiological saline was used as a control.
After 5 minutes from the second instilling of palmidrol, a physiological saline containing 1.0% (w/v) histamine was instilled into both eyes of the guinea pig in 10 μL/one eye to induce eye scratching action.
The behavior of the guinea pig after administering histamine was videotaped, and the ocular pruritus was evaluated on each eye by counting actions of scratching the eye with the hind foot. The average value of the number of eye scratchings for 30 minutes after administering histamine and the eye scratching inhibition rate are shown in Table 1. In each example, 12 eyes are used.
Eye scratching inhibition rate=100−(number of eye scratchings with test compound)/(number of eye scratchings with control)×100

[2] = tested on: allergic conjunctivitis models; experiment: Ocular pruritus inhibition activity to allergic conjunctivitis models; conditions: for Eye scratching inhibition rate: 0.1% (w/v) instilled twice before ovalbumin, 30 minutes, 12 eyes
Experimental: Aluminum hydroxide gel-adsorbed ovalbumin (20 μg/mL) was dissolved in a physiological saline, and the resulting solution was subconjunctivally injected into both eyes of a 4-week-old male Hartley guinea pig in 100-μL portions for active sensitization. On days 14, 16, 18, 21, 23 and 25 after the sensitization, a physiological saline containing 2.5% (w/v) ovalbumin was instilled into both eyes in 10 μL/one eye to induce allergic conjunctivitis. A physiological saline was used as a control.
Five minutes and 15 minutes (twice in total) before the instilling of ovalbumin on days 16, 18, 21, 23 and 25 after the sensitization, a suspension of 0.1% (w/v) palmidrol in a physiological saline was instilled into both eyes of the guinea pig in 10 μL/one eye.
The behavior of the guinea pig for 30 minutes after the instilling of ovalbumin on days 21, 23 and 25 after the sensitization were videotaped, and the ocular pruritus was evaluated by counting the number of eye scratchings in case of instilling palmidrol and a control. In each example, 12 eyes are used.

[3] = 0.01% (w/v) suspension instilled twice, 30 minutes after 0.1% PAF
[4] = 0.1% (w/v) suspension instilled twice
[5] = 0.5% (w/v) suspension instilled twice

## CCCCC/C=C\C/C=C\C/C=C\C/C=C\CCCC(=O)NCCO [Test compound A, anandamide]
[1]; [3]
  Eye scratching inhibition rate: 40.9%
[1]
  Number of eye scratchings in comparison with the controls (in words): markedly decreased

## CCCCCCCCCCCCCCCC(=O)NCCO [Palmidrol, N-palmitoyl-ethanolamide]
histamine-induced models; [4]
  Number of eye scratchings: 8.5 times
  Eye scratching inhibition rate: 62.8%
histamine-induced models; [5]
  Number of eye scratchings: 3.8 times
  Eye scratching inhibition rate: 83.2%
histamine-induced models; instilled 0.1% or 0.5%, extent depends on concentration
  Number of eye scratchings in comparison with the control (in words): markedly decreased
[2]; Day 21 after sensitization
  Eye scratching inhibition rate: 41.5%
[2]; Day 23 after sensitization
  Eye scratching inhibition rate: 52.3%
[2]; Day 25 after sensitization
  Eye scratching inhibition rate: 51.7%
[2]; 0.1% instilled
  Eye scratching action in comparison with the control (in words): significantly inhibited

## COc1ccc2c(c1)c(CC(=O)N1CCOCC1)c(C)n2C(=O)c1ccc(Cl)cc1 [Test compound B, indometacin morpholinylamide]
[1]; 0.001% (w/v) suspension instilled twice, 30 minutes after 0.1% PAF
  Eye scratching inhibition rate: 38.7%
[1]; [3]
  Eye scratching inhibition rate: 52.9%
[1]
  Number of eye scratchings in comparison with the controls (in words): markedly decreased

## CCCCCOc1c(OC)ccc2cc(C(=O)NCc3ccc4c(c3)OCO4)c(=O)[nH]c12 [Test Compound C, N-(benzo[d][1,3]dioxol-5-ylmethyl)-7-methoxy-2-oxo-8-pentyloxy-1,2-dihydroquinoline-3-carboxamide]
[1]; 0.0001% (w/v) suspension instilled once, 15 minutes before 0.1% PAF, 30 minutes
  Eye scratching inhibition rate: 22.7%
[1]; 0.001% (w/v) suspension instilled once, 15 minutes before 0.1% PAF, 30 minutes
  Eye scratching inhibition rate: 34.3%
[1]; 0.01% (w/v) suspension instilled once, 15 minutes before 0.1% PAF, 30 minutes
  Eye scratching inhibition rate: 44.2%
[1]
  Number of eye scratchings in comparison with the controls (in words): markedly decreased

— patent US20050009902A1, “Remedies for pruritus” (priority 2001, published 2005)
